Reference: patent publication US10081812B2, “D-amino acid-inducible gene expression system for Rhodosporidium and Rhodotorula” (TEMASEK LIFE SCIENCES LABORATORY LIMITED, priority 2015, dated 2018)

What was measured:
DAO1 mRNA = experiment: qRT-PCR of DAO1 mRNA transcripts in R. toruloides cells; format: cell-based
Method: (§1) For gene induction studies, modified MinAB (MinABs) (28) with carbon source and nitrogen source (NH4NO3) omitted was used as basal medium. Carbon source (10 g/L glucose, 70 mM L-alanine or D-alanine) and nitrogen source (70 mM ammonium sulfate, L-alanine or D-alanine) were supplemented as required. For stress treatments, YPD broth was used as the basal medium and cultured after supplementation of various chemicals, or in harsh conditions. Unless indicated otherwise, cell cultures were conducted in a rotary shaker under 28° C. and 250 rpm.
Total RNA was treated with DNase I (Roche Diagnostics) and recovered by ethanol precipitation to remove the trace DNA. cDNA was synthesized using the iScript™ Reverse Transcription Supermix for RT (Bio-Rad, USA) and real-time PCR was conducted in ABI PRISM 7900HT Sequence Detection System (Life Technologies, USA) using the ABI SYBR® Select Master Mix (Life Technologies, USA). PCR conditions were as followed: an initial 50° C. for 2 min and 95° C. denaturation step for 10 min followed by 40 cycles of denaturation at 95° C. for 15 s, annealing at 60° C. for 1 min. Triplicates were used for all qRT-PCR analyses. The data was acquired using the software SDS 2.4 (Applied Biosystems, Life Technologies, USA) and relative gene expression was calculated against the reference gene ACT1 (nucleotide sequence: SEQ ID NO:89; amino acid sequence: SEQ ID NO:90) with the 2-ΔΔCt method through the RQ Manager software v1.2.1 (Applied Biosystems, USA).
To investigate the regulation DAO1 gene expression, the mRNA level in cells cultured in YPD medium supplemented with D-alanine or L-alanine levels was quantitated by qRT-PCR using the Actin mRNA (ACT1) as the reference. As expected, DAO1 mRNA expression was negligible when cells were cultured in MinABs medium supplemented with L-alanine or ammonium sulfate as the sole nitrogen source (FIG. 4B).

[1] = test system: DAO1 mRNA transcripts / Dao1 protein; details: induction with D-alanine; cited from earlier work
DAO1 promoter (PDAO1in) = experiment: Luciferase reporter assay of 2.2 kb intron 1-containing DAO1 promoter (PDAO1in) reporter strains; format: cell-based, R. toruloides; details: for induction of DAO1 promoter by D-amino acid: 70 mM as the sole carbon and nitrogen source in MinABs, 21 h induction, FIG. 8
Method: as §1
Yeast strains transformed with PDAOinx::RtLUC2 cassettes were cultured in YPD broth to mid-exponential phase. Cells were water-washed twice and resuspended in MinABs plus 70 mM of either D-alanine or L-alanine to a cell optical density at 600 nm (OD600) of 0.5 and continued culturing at 30° C., 250 rpm for 21 hr. Cells were harvested, washed and resuspended in PBS buffer supplemented with 1 mM DTT, 3 mM β-mercaptoethanol and 1 mM PMSF (pH7.4) supplemented with equal volume of 0.5 mm glass beads (Sigma-Aldrich, USA), and lysed with FastPrep 24™ 5 G (MP Biomedicals, Irvine, Calif., USA) for 40 seconds. The protein concentration and luciferase activity was determined using Bradford method and a commercial luciferase assay kit (Promega, USA) under the supplier's protocol, respectively. All data was measured and acquired with the Infinite M200 plate reader coupled with the iCycler software (version 3.0, Tecan, Salzburg, Austria). All experiments were performed in both biological and statistical triplicates. For determination of relative promoter activity (RPA), luminescence value was subtracted against the blank or negative control (promoter-less strain), normalized against the protein concentration, then normalized against either the values of PGPD1 or the maximum reading.
To investigate the effects of carbon and nitrogen sources on promoter activity, 3 strains with 2.2 kb intron 1-containing DAO1 promoter (PDAO1in) knocked in at the CAR2 locus were cultured in the modified MinAB medium (MinABs), which had glucose and ammonium sulfate supplemented to the basal medium MinAB when necessary.
Here, substrate selectivity of the 2.2 kb DAO1 promoter (PDAO1in) reporter strains was investigated on their inducibility by different D-amino acids.

C[C@@H](N)C(=O)O [D-alanine]
DAO1 mRNA level relative to control medium (DAO1 mRNA; 6-hr after D-alanine supplementation, both glucose and ammonium sulfate omitted, FIG. 4B): ~100 fold | DAO1 mRNA level increase (DAO1 mRNA; cultured in the presence of 70 mM D-alanine, ACT1 reference, FIG. 4B): 12-18 folds | Dao1 protein share of the soluble intracellular proteins [1]: 1.0% | time of peak of DAO1 mRNA transcripts after induction [1]: ≤ 12 h | induction of DAO1 promoter by D-amino acid (DAO1 promoter (PDAO1in)): most preferably induced | luciferase expression among media (DAO1 promoter (PDAO1in); MinABs supplemented with 70 mM D-alanine only, FIG. 7A): Best luciferase expression | concentration effective in driving expression of the reporter gene (as low as) (DAO1 promoter (PDAO1in); MinABs with 10 g/L glucose, FIG. 7B): 20 mM

CC(C)C[C@@H](N)C(=O)O [D-leucine]
induction of DAO1 promoter by D-amino acid (DAO1 promoter (PDAO1in)): significantly less effective

CSCC[C@@H](N)C(=O)O [D-methionine]
induction of DAO1 promoter by D-amino acid (DAO1 promoter (PDAO1in)): significantly less effective

N[C@H](Cc1ccccc1)C(=O)O [D-phenylalanine]
induction of DAO1 promoter by D-amino acid (DAO1 promoter (PDAO1in)): significantly less effective

O=C(O)[C@H]1CCCN1 [D-proline]
induction of DAO1 promoter by D-amino acid (DAO1 promoter (PDAO1in)): similarly effective

N[C@H](CO)C(=O)O [D-serine]
induction of DAO1 promoter by D-amino acid (DAO1 promoter (PDAO1in)): similarly effective

C[C@H](O)[C@@H](N)C(=O)O [D-threonine]
induction of DAO1 promoter by D-amino acid (DAO1 promoter (PDAO1in)): similarly effective

N[C@H](Cc1c[nH]c2ccccc12)C(=O)O [D-tryptophan]
induction of DAO1 promoter by D-amino acid (DAO1 promoter (PDAO1in)): significantly less effective

CC(C)[C@@H](N)C(=O)O [D-valine]
induction of DAO1 promoter by D-amino acid (DAO1 promoter (PDAO1in)): similarly effective

C[C@H](N)C(=O)O [L-alanine]
DAO1 mRNA expression (DAO1 mRNA; MinABs medium, substance as the sole nitrogen source, FIG. 4B): negligible | reduction of luciferase expression (DAO1 promoter (PDAO1in); equal level (70 mM) added as the competitor to 70 mM D-alanine, after 21 hr culture, FIG. 7A): about 5 fold

N.N.O=S(=O)(O)O [ammonium sulfate]
effect on D-alanine-induced DAO1in promoter activity (DAO1 promoter (PDAO1in); added to MinABs with 70 mM D-alanine, glucose 10 g/L, ammonium sulfate 70 mM, FIG. 7A): little effect | effect of concentration on DAO1 promoter activity (DAO1 promoter (PDAO1in); glucose 10-100 g/L, ammonium sulfate 5-50 mM, with 70 mM D-alanine, FIGS. 7C and 7D): only marginal effects

OCC(O)CO [glycerol]
DAO1 transcription compared to that of glucose (DAO1 mRNA; substance as the sole carbon source (YPG broth), 6 hour, 28° C., FIG. 4C): enhance DAO1 transcription
